Laboratory results from US20090203725A1, “Androgen Receptor Modulator Compounds and Methods” (priority 2005, published 2009).

These compounds were tested against T1, hAR (Homo sapiens, UniProt P10275) (assay: IR Binding Assay: displacement of 3H-DHT in COS-1 cells transfected with pRShAR). Conditions: not given.
T1 construct: expressed in transfected cells; host or cells: COS-1 cells transiently transfected with pRShAR, pRS-β-Gal and pGEM
T1 sequence (P10275 1-920): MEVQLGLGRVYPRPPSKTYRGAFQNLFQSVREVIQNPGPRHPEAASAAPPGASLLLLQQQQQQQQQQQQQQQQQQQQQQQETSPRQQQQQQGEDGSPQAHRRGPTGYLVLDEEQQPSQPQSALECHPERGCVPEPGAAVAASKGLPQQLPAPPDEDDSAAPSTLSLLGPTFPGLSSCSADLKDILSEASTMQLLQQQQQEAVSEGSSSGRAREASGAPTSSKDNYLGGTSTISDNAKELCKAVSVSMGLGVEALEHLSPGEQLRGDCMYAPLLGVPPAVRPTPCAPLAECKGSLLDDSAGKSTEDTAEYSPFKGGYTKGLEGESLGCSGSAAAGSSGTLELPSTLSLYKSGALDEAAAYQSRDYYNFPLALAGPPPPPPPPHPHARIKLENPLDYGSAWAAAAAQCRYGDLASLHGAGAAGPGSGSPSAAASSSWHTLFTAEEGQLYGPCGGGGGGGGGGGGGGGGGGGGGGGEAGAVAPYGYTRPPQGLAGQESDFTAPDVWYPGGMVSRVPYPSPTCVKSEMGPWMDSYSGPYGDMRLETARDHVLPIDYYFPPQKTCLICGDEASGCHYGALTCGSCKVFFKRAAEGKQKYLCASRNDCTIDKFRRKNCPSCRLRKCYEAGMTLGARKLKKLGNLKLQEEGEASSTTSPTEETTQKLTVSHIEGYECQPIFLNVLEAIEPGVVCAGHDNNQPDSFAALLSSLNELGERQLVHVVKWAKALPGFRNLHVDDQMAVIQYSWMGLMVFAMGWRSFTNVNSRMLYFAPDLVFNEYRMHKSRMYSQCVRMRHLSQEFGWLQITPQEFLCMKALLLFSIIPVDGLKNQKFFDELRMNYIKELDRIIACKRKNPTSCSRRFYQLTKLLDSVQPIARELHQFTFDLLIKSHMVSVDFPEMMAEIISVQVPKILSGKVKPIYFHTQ
Protocol: COS-1 cells in 96-well microtiter plates containing DMEM-10% FBS were transfected using standard techniques with plasmids pRShAR (2 ng/well), pRS-β-Gal (50 ng/well) and pGEM (48 ng/well). Six hours after transfection, media was removed, the cells were washed with PBS and fresh media was added. Twenty-four hours later, the media was changed to serum free DMEM and the cells were incubated for twenty-four hours.
Three replicates were used for each sample.
After three hours at 37° C., aliquots of media from each well of both test plates and control plates were removed to estimate the amount of free ^3H-DHT. The remaining media was removed, the cells were washed three times with PBS, and cells were lysed with a Triton X-100-based buffer. The lysates were assayed for amount of bound ^3H-DHT and β-Gal activity using a scintillation counter and spectrophotometer, respectively.
Determination of Kd for ^3H-DHT. Total binding was defined as binding of ^3H-DHT in the absence of 100 molar excess of unlabeled DHT in the control plate. […] binding was defined as binding of ^3H-DHT in the presence of 100 molar excess of unlabeled DHT in the control plate. Specific binding was defined as the difference between the total binding and the nonspecific binding, normalized by the β-Gal rate. Specific binding was used in Scatchard analysis to determine the Kd for ^3H-DHT.
Test Compounds. To determine binding affinity (Ki) for test compounds, the data from each concentration of test compound was calculated as a percentage of the signal for the sample with no test compound. […] The Ki values were determined by the Cheng-Prusoff equation, where: […]
`COc1cccc2c1-c1ccc3[nH]c(=O)cc(C)c3c1C(C)O2` (racemic) [Compound 107, (±)-10-Methoxy-4,5-dimethyl-1H,5H-6-oxa-1-aza-chrysen-2-one] showed a Ki of over 50 nM. Work on `COc1cccc2c1-c1ccc3[nH]c(=O)cc(C(F)(F)F)c3c1C(O)O2` (racemic) [Compound 114, (±)-5-Hydroxy-10-methoxy-4-trifluoromethyl-1H,5H-6-oxa-1-aza-chrysen-2-one] yielded a Ki of over 50 nM. Compound `COc1c(OC(=O)C(C)(C)C)ccc2oc(=O)c3c(ccc4[nH]c(=O)cc(C)c43)c12` [Compound 102, 2,2-Dimethylpropionic acid 10-methoxy-4-methyl-2,5-dioxo-2,5-dihydro-1H-6-oxa-1-aza-chrysen-9-yl ester] has a Ki of 10 to 50 nM. Work on `COc1cccc2c1-c1ccc3[nH]c(=O)cc(C(F)(F)F)c3c1CO2` [Compound 113] yielded a Ki of 10 to 50 nM. In the case of `O=c1cc(C(F)(F)F)c2c3c(ccc2[nH]1)-c1c(O)cccc1OC3` [Compound 115, 10-Hydroxy-4-trifluoromethyl-1H,5H-6-oxa-1-aza-chrysen-2-one], the Ki is reported as under 10 nM. Work on `CC(C)(C)C(=O)Oc1cccc2c1-c1ccc3[nH]c(=O)cc(C(F)(F)F)c3c1CO2` [Compound 116, 2,2-Dimethyl-propionic acid 2-oxo-4-trifluoromethyl-2,5-dihydro-1H-6-oxa-1-aza-chrysen-10-yl ester] yielded a Ki of under 10 nM. In the case of `Cc1cc(=O)[nH]c2ccc3c4c(CO)cccc4oc(=O)c3c12` [Compound 124, 10-Hydroxymethyl-4-methyl-1H-6-oxa-1-aza-chrysene-2,5-dione], the Ki is reported as 10 to 50 nM. `COc1cccc2c(=O)oc3c(ccc4[nH]c(=O)cc(C(F)(F)F)c43)c12` [Compound 126, 10-Methoxy-4-trifluoromethyl-1H-5-oxa-1-azachrysene-2,6-dione] was tested, and the Ki was 10 to 50 nM. `COc1cccc2c1-c1ccc3[nH]c(=O)cc(C(F)(F)F)c3c1OC2` [Compound 127, 10-Methoxy-4-trifluoromethyl-1,6-dihydro-5-oxa-1-azachrysen-2-one] showed a Ki of 10 to 50 nM.

Same assay, conditions: 1 nM 3H-DHT, transfected COS-1 cells, 3 hours at 37° C., Cheng-Prusoff; read-out: Binding to hAR (Ki value ranges)
`COc1cccc2c1-c1ccc3[nH]c(=O)cc(C)c3c1C(O)O2` (racemic) [Compound 105, (±)-5-Hydroxy-10-methoxy-4-methyl-1H,5H-6-oxa-1-aza-chrysen-2-one] was tested, and the Ki was over 50 nM. `COc1cccc2c1-c1ccc3[nH]c(=O)cc(C)c3c1C(C)(OC)O2` (racemic) [Compound 108, (±)-5,10-Dimethoxy-4,5-dimethyl-1H,5H-6-oxa-1-azachrysen-2-one] was tested, and the Ki was over 50 nM. Compound `COc1c(O)ccc2c1-c1ccc3[nH]c(=O)cc(C)c3c1C(OC)O2` (racemic) [Compound 118, (±)-9-Hydroxy-5,10-dimethoxy-4-methyl-1H,5H-6-oxa-1-aza-chrysen-2-one] has a Ki of over 50 nM. `COc1ccc2oc(=O)c3c(ccc4[nH]c(=O)cc(C)c43)c2c1` [Compound 103, 9-Methoxy-4-methyl-1H-6-oxa-1-aza-chrysene-2,5-dione] was tested, and the Ki was over 50 nM. `Cc1cc(=O)[nH]c2ccc3c4c(OC(=O)C(C)(C)C)cccc4oc(=O)c3c12` [Compound 104, 2,2-Dimethylpropionic acid 4-methyl-2,5-dioxo-2,5-dihydro-1H-6-oxa-1-aza-chrysen-10-yl ester] gave a Ki of under 10 nM. Compound `COc1cccc2c1-c1ccc3[nH]c(=O)cc(C)c3c1CO2` [Compound 109, 10-Methoxy-4-methyl-1H,5H-6-oxa-1-azachrysen-2-one] has a Ki of over 50 nM. `COC(=O)c1cccc2oc(=O)c3c(ccc4[nH]c(=O)cc(C)c43)c12` [Compound 111, 4-Methyl-2,5-dioxo-2,5-dihydro-1H-6-oxa-1-aza-chrysene-10-carboxylic acid methyl ester] showed a Ki of over 50 nM. `COc1c(O)ccc2oc(=O)c3c(ccc4[nH]c(=O)cc(C)c43)c12` [Compound 117, 9-Hydroxy-10-methoxy-4-methyl-1H-6-oxa-1-aza-chrysene-2,5-dione] was tested, and the Ki was under 10 nM. With `COc1c(O)ccc2c1-c1ccc3[nH]c(=O)cc(C)c3c1CO2` [Compound 119, 9-Hydroxy-10-methoxy-4-methyl-1H,5H-6-oxa-1-aza-chrysen-2-one] the Ki was under 10 nM. Work on `COc1c(OC(C)C)ccc2oc(=O)c3c(ccc4[nH]c(=O)cc(C)c43)c12` [Compound 120, 9-Isopropoxy-10-methoxy-4-methyl-1H-6-oxa-1-aza-chrysene-2,5-dione] yielded a Ki of 10 to 50 nM. `CCOc1ccc2oc(=O)c3c(ccc4[nH]c(=O)cc(C)c43)c2c1OC` [Compound 121, 9-Ethoxy-10-methoxy-4-methyl-1H-6-oxa-1-aza-chrysene-2,5-dione] gave a Ki of over 50 nM. With `CCOc1ccc2oc(=O)c3c(ccc4c3c(C)cc(=O)n4CC)c2c1OC` [Compound 122, 9-Ethoxy-1-ethyl-10-methoxy-4-methyl-1H-6-oxa-1-aza-chrysene-2,5-dione] the Ki was over 50 nM. Compound `COc1cccc2c1-c1ccc3[nH]c(=O)cc(C)c3c1C(=O)OC2` [Compound 123, 4-Methoxy-10-methyl-7,13-dihydro-12-oxa-7-aza-benzo[3,4]cyclohepta[1,2-α]-naphthalene-8,11-dione] has a Ki of over 50 nM. `Cc1c([N+](=O)[O-])ccc2c1c(=O)oc1cccc(O)c12` [Compound 129, 1-Hydroxy-7-methyl-8-nitrobenzo[c]coumarin] was tested, and the Ki was under 10 nM. `COc1cccc2oc(=O)c3c(C)c([N+](=O)[O-])ccc3c12` [Compound 130, 1-Methoxy-7-methyl-8-nitrobenzo[c]coumarin] was tested, and the Ki was over 50 nM.
